Data as given in paper PMC7822874, “Chemoprotective antimalarials identified through quantitative high-throughput screening of Plasmodium blood and liver stage parasites” (Scientific Reports, 2021).
Read-outs that look alike come from different tables or passages of the source.

Legend:
[1] = system: P. berghei-ANKA-GFP-LucCON liver stage parasites in HepG2-A16-CD81EGFP cells; test: P. berghei liver stage Pb-Luc assay, Method 1 (UCSD, 1536-well); on Pb-Luc signal, 1 uM, repeat 1: reference of the scale not given here; on Pb-Luc signal, 1 uM, repeat 2: reference of the scale not given here; on Pb-Luc signal, 1 uM, repeat 3: reference of the scale not given here; on Pb-Luc signal, 3 uM, repeat 1: reference of the scale not given here; on Pb-Luc signal, 3 uM, repeat 2: reference of the scale not given here; on Pb-Luc signal, 3 uM, repeat 3: reference of the scale not given here; assay type: cell-based, Plasmodium berghei; details: for Max Resp (signal direction of the dose response): Decrease = decreasing P. berghei viability with dose, Increase = increasing signal, Inactive = no dose response; for activity at 1 µM / activity at 3 µM: 48 h, average of 2 wells, 1536-well plate; for activity at 1 µM: nominal 1 uM (10 mM stock), […] for 15 mM, 1.2 uM for 12 mM, 2 uM for 20 mM stock; for activity at 3 µM: nominal 3 uM (10 mM stock), 4.5 uM for 15 mM, 3.6 uM for 12 mM, 6 uM for 20 mM stock
[2] = system: luciferase-expressing P. berghei liver stage parasites in HepG2 cells; test: Inhibition of liver-stage development assay (ILSDA), Method 2 (WRAIR, 96-well); assay type: cell-based, Plasmodium berghei; details: for Max Resp (signal direction of the dose response): Method 2, Decrease = decreasing P. berghei viability with dose, Increase = increasing signal, Inactive = no dose response; for AC50: Plasmodium berghei, HepG2, Method 2; for Activity direction (Decrease / Inactive): P. berghei liver stage, Method 2, dose response
[3] = system: Plasmodium falciparum Dd2 asexual blood stage parasites; test: microbe, parasite or virus in culture; design: species or system Plasmodium falciparum Dd2 in human erythrocytes; single determination (one 11-point concentration-response curve); details: Plasmodium falciparum, DD2, Erythrocyte, 72 h; read-out: AC50
in vitro [4] = details: human, n = 1
HepG2-A16-CD81EGFP cells = details: average of 2 wells; for HepG2 viability signal, 3 uM, repeat 2: nominal 3 uM (10 mM stock), 4.5 uM for 15 mM, 3.6 uM for 12 mM, 6 uM for 20 mM stock
in vitro [5] = details: human, HepG2-A16-CD81EGFP cells, uninfected
[6] = system: T1, Plasmodium falciparum Dd2-attB (parental line), asexual blood stages; test: microbe, parasite or virus in culture; design: replicate k of 3 (each line is one of three independent assays; the three lines of one compound and parasite line follow each other); details: n = 1
T1 construct: Dd2-attB, the isogenic parental line
Procedure, shortened: (§1)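 Only some compounds were profiled here. Each was assayed three independent times against the Dd2-attB parent and its yeast-DHODH-overexpressing derivative.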

[7] = system: T2, Plasmodium falciparum Dd2-attB-ScDHODH (transgenic line expressing yeast DHODH), asexual blood stages; test: organism not typed; design: replicate k of 3 (each line is one of three independent assays; the three lines of one compound and parasite line follow each other); details: 72 h, n = 1
T2 construct: Dd2-attB-ScDHODH, the transgenic line that expresses yeast DHODH
Procedure, shortened: as §1

[8] = Plasmodium berghei, Method 1, Hill fit, 50% of maximum activity response, read-out: AC50
[9] = Plasmodium berghei, Method 1, log10 of molar AC50 from Hill fit, read-out: Log AC50 (converted)
[10] = Hill fit, 50% of maximum activity response, read-out: AC50
[11] = log10 of molar AC50 from Hill fit, read-out: Log AC50 (converted)
[12] = Plasmodium berghei, repeat 1, read-out: Pb-Luc signal, 1 uM, repeat 1
[13] = Plasmodium berghei, repeat 2, read-out: Pb-Luc signal, 1 uM, repeat 2
[14] = Plasmodium berghei, repeat 3, read-out: Pb-Luc signal, 1 uM, repeat 3
[15] = Plasmodium berghei, repeat 1, read-out: Pb-Luc signal, 3 uM, repeat 1
[16] = Plasmodium berghei, repeat 2, read-out: Pb-Luc signal, 3 uM, repeat 2
[17] = Plasmodium berghei, repeat 3, read-out: Pb-Luc signal, 3 uM, repeat 3
[18] = nominal 1 uM (10 mM stock), […] for 15 mM, 1.2 uM for 12 mM, 2 uM for 20 mM stock

Row | Structure (SMILES) | AC50 [1, 8] [nM] | AC50 [1, 9] [nM] | Max Resp (signal direction of the dose response) [2] | AC50 [2, 10] [nM] | AC50 [2, 11] [nM] | AC50 [3] [nM] | CC50 at 48 h (in vitro [4]; HepG2 cells) [nM] | activity at 1 µM [1, 12] [%] | activity at 1 µM [1, 13] [%] | activity at 1 µM [1, 14] [%] | activity at 3 µM [1, 15] [%] | activity at 3 µM [1, 16] [%] | activity at 3 µM [1, 17] [%] | HepG2 viability signal, 1 uM, repeat 2 (HepG2-A16-CD81EGFP cells; [18]) [%] | HepG2 viability signal, 3 uM, repeat 2 (HepG2-A16-CD81EGFP cells) [%] | viability at 48 h, 1 µM (in vitro [5]) [%] | viability at 48 h, 3 µM (in vitro [5]) [%] | also measured
1 | O=C(Nc1ccc(Br)cc1)c1ccc(F)c([S+](=O)([O-])NC2CCCCCC2)c1 [NCGC00139407-01] | 562 | 562 | Decrease | 631 | 631 | 9440 | 13700 | – | – | – | – | – | – | – | – | – | – | Max Resp (signal direction of the dose response) ([1]; Method 1): Decrease; AC50 ([1]; Method 1, Hill fit, 50% of maximum activity response, read-out: AC50): 1120 nM; Log AC50 (M) ([1]; Method 1, log10 of molar AC50 from Hill fit): -5.950 M
2 | CC1=C[C@@H](CNCc2cccnc2)[C@H](C(C)C)C[C@H]1Cc1nnc(-c2ccc([N+](=O)[O-])cc2)o1 [NCGC00394797-01] | 1580 | 1580 | Decrease | 562 | 562 | 5310 | – | 72 | 75 | 71.6 | 23.8 | 19.3 | 23.7 | 102.23 | 86.98 | – | – | HepG2 viability signal, 1 uM, repeat 1 (HepG2-A16-CD81EGFP cells; nominal 1 uM (10 mM stock), […] for 15 mM, 1.2 uM for 12 mM, 2 uM for 20 mM stock, repeat 1): 104.31%; CC50 at 48 h (in vitro [4]; hepg2): 24300 nM
3 | Oc1c(C(Nc2nccs2)c2ccc(C(F)(F)F)cc2)ccc2cccnc12 (stereo not drawn) [MLS000774842-01] | – | – | Decrease | 282 | 282 | 5310 | 15300 | – | – | – | – | – | – | – | – | – | – | –
4 | Cc1nn2c(c1-c1ccccc1-c1ccccc1)N(CC1CC1)CCC2 [NCGC00420435-01] | 1580 | 1580 | – | – | – | 968 | 22200 | 52.9 | 51.5 | 66.1 | 2.42 | 7.19 | 5.92 | 101.46 | 45.92 | 102 | 53.6 | Activity direction (Decrease / Inactive) [2]: Inactive
5 | Oc1c(CNc2ccccc2)cc(COCc2ccccc2)c2cccnc12 [NCGC00183370-01] | – | – | – | – | – | – | 21700 | – | – | – | – | – | – | – | – | – | – | Individual replicates / Log AC50 (M) ([6]; 72 h): -5.0486 Log AC50 (M); AC50 ([6]; Plasmodium falciparum, DD2, 72 h, read-out: Individual replicates / Log AC50 (converted)): 11300 nM; Individual replicates / Log AC50 (M) [7]: -4.7986 Log AC50 (M); AC50 ([7]; read-out: Individual replicates / Log AC50 (converted)): 14200 nM
6 | CC(C)c1ccc(CC(=O)N2CCCc3ncc(C(=O)Nc4cccnc4)cc32)cc1 [NCGC00420003-01] | – | – | – | – | – | 863 | 19800 | 24.7 | 4.89 | 35.4 | 3.66 | 2.01 | 4.19 | 94.19 | 54.54 | 99 | 35.6 | Max Resp (signal direction of the dose response) ([1]; Method 1): Inactive; Activity direction (Decrease / Inactive) [2]: Inactive
7 | O=C(NC(c1ccccc1)c1cc(Cl)c2cccnc2c1O)c1cccnc1 (stereo not drawn) [MLS000573359-01] | – | – | Decrease | 1120 | 1120 | 7500 | 13700 | – | – | – | – | – | – | – | – | 119 | 66 | –
